Experiments:
[1] = system: total intracellular ROS; experiment: Intracellular ROS by CellROX staining and flow cytometry; format: cell-based; conditions: CHOP-resistant (G3) cells, 10 uM rifabutin, FIG. 35
From the text: Cells were then stained with the fluorescent ROS indicator, CellROX, and subjected to flow cytometry to quantitate total intracellular ROS.
The electron transport chain (ETC) is known to be a primary generator of ROS in the cell. Most of the ROS is generated by Complexes I and III of the ETC. Inhibition of Complex I results in electrons piling up and leaking to react with oxygen to produce ROS.
MDR/P-gp activity is closely associated with calcium status in the cell, so calcium modulators were tested for effects on ROS. […] Relatively Dox-sensitive lymphoma (CRL2631, 10S, WSU) and ovarian carcinoma (OVCAR8) and more Dox-resistant lymphoma (G3R, 10R, WSUR) and ovarian carcinoma (ADR) were treated with 10 uM […] for 2 hrs. […] Cells were co-stained with the cell-permeable red fluorescent ROS indicator, CellROX, and cell-permeable green fluorescent calcium indicator. Fluo-4AM, and then subjected to flow cytometry to quantitate changes in ROS and calcium levels.
All samples were analyzed at the same time in flow cytometry.

[2] = system: CRL2631 cells; experiment: Collagen invasion 3D assay, CRL2631 cells; format: cell-based, human; conditions: 10 uM Rifabutin in collagen matrix, 24 hours
Protocol: The effects of rifabutin on cell invasion was assessed in a collagen invasion 3D assay. Increased interest in the use of 3D culture systems has been motivated by accumulating evidence that 3D models better reflect the microenvironment of tumors and metastases and more accurately predict therapeutic response in vivo compared with conventional 2D assays. A collagen invasion 3D assay allows the rapid and quantitative assessment of invasiveness and a means to screen for drugs which alter the invasive phenotype of tumor cells.
The CHOP-resistant G3 cell line is much more invasive in a collage invasion 3D assay than its CHOP-sensitive parent cell line (CRL2631). Collagen matrices (1 mg/ml) were prepared as previously described in Su. S. C., et al., Molecular profile of endothelial invasion of three-dimensional collagen matrices: insights into angiogenic sprout induction in wound healing. Am. J. Physiol. […] Cell invasion density was quantified by counting fixed cultures under transmitted light using an Olympus CK2 inverted microscope equipped with eyepieces displaying a 10×10 ocular grid. For each condition, four random fields were selected and the number of invading cells per high power field (HPF) was counted manually at 10× magnification, corresponding to 1 mm^2 area. […]

[3] = system: CHOP-sensitive CRL2631 cells; experiment: Prevention of the emergence of CHOP resistance in CRL2631 cells; format: cell-based, human; conditions: half (0.5×) and full (1×) doses of CHOP, one week treatment
Protocol: The ability of rifabutin to prevent the emergence of CHOP-resistance was determined by treating CHOP-sensitive CRL2631 cells with either CHOP alone or CHOP+rifabutin for one week. Following treatment, the cells were grown in the absence of CHOP, then their sensitivity to CHOP was assayed by retreatment with CHOP, followed by counting of viable cells. […] A 1× CHOP dose in this experiment corresponds to final concentrations of the following components: 0.83 μM 4-hydroxycyclophosphamide [4HC, a pre-activated form of cyclophosphamide], 0.057 μM doxorubicin, 0.01 μM vincristine, and 0.186 μM prednisone.

CO[C@H]1/C=C/O[C@@]2(C)Oc3c(C)c(O)c4c(c3C2=O)C2=NC3(CCN(CC(C)C)CC3)NC2=C(NC(=O)/C(C)=C\C=C\[C@H](C)[C@H](O)[C@@H](C)[C@@H](O)[C@@H](C)[C@H](OC(C)=O)[C@@H]1C)C4=O [Rifabutin, rifabutin]
Induction of ROS [1]: rapidly induces ROS
Reduction of the amount of invasion [2]: Less of this effect
Emergence of CHOP-resistant cells [3]: significantly repress

Reference: patent US9539237B2, “Compositions and methods for drug-sensitization or inhibition of a cancer cell” (The Texas A&M University System, priority 2012, dated 2017)
